Laboratory results: publication PMC2888578, “Conformational Determinants of Phosphotyrosine Peptides Complexed with the Src SH2 Domain” (PLoS ONE, 2010)
Where two headings read alike, the source gives them in different places. Where a SMILES comes first, the peptide text is derived from it. Where no end group is shown, it is not given here. [ ]: non-standard residue; d: D form. pY = N[C@@H](Cc1ccc(OP(=O)(O)O)cc1)C(=O)O

Assays:
Src SH2 domain = target: T1, Src SH2 domain (Homo sapiens, UniProt P12931); test: fluorescence polarization (FP) competition binding assay against fluorescent probe EPQ(pY)EEIPIYL(K-Flc); conditions: for IC50: concentration that reduces binding of fluorescein-labeled probe EPQ(pY)EEIPIYL(K-Flc) to the Src SH2 domain by 50%, 350 nM GST-Src SH2, 50 nM probe, 25°C, pH 7.3
T1 construct: 350 nM of GST-Src SH2 domain fusion protein
T1 sequence (P12931 151-248 limits assumed): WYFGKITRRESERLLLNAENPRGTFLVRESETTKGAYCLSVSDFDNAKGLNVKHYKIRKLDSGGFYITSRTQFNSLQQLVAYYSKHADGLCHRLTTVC
Method: The relative binding affinity of phosphopeptides to the Src SH2 domain was tested by competition against a fluorescent probe using a fluorescence polarization (FP) binding assay, [17], [18]. FP was measured at 25°C in a disposable glass tube, using a Beacon 2000 luminescence spectrometer equipped with an FP apparatus. The excitation and emission wavelengths were set at 485 and 535 nm, respectively. The fluorescent probe was the fluorescein (Flc)-labeled phosphopeptide EPQ(pY)EEIPIYL(K-Flc). For the competition assay, final concentrations of 350 nM of GST-Src SH2 domain fusion protein, 50 nM fluorescent probe, HEPES buffer (20 mM, pH 7.3, 100 mM NaCl, 2 mM DTT, 0.1% BSA) and various concentrations (0–100 µM) of each competitor peptide were used. A blank control (with the Src SH2 domain but without a peptide) and a background control (without both the Src SH2 domain and the peptide) were used. The inhibition percentage IP of fluorescent probe binding to the Src SH2 domain by the sample was calculated by the following equation: [drawing 1] where FP0 is the fluorescent polarization value of the blank control, FP is the fluorescent polarization value of the sample (peptide), and FPb is the fluorescent polarization value of the background control. The inhibition percentages of the various concentrations of the assayed peptides were plotted, and the IC50 value (the concentration that inhibits the binding of the fluorescent probe to the Src SH2 domain by 50%) was calculated.

Src SH2 = conditions: cited from earlier work

N[C@@H](Cc1ccc(OP(=O)(O)O)cc1)C(=O)N[C@@H](CCC(=O)O)C(=O)N[C@@H](CCC(=O)O)C(=O)NCC(=O)O [pYEEG] (H-[pY]EEG-OH)
IC50 (Src SH2 domain): 5.7 ± 2.1 µM

CC[C@H](C)[C@H](NC(=O)[C@H](CC(N)=O)NC(=O)[C@H](CCC(=O)O)NC(=O)[C@@H](N)Cc1ccc(OP(=O)(O)O)cc1)C(=O)O [pYENI, pTyr-Glu-Asn-Ile] (H-[pY]ENI-OH)
IC50 (Src SH2 domain): 1 ± 0.1 µM

CC(C)[C@H](NC(=O)[C@H](CC(N)=O)NC(=O)[C@H](CCC(=O)O)NC(=O)[C@@H](N)Cc1ccc(OP(=O)(O)O)cc1)C(=O)O [pYENV] (H-[pY]ENV-OH)
IC50 (Src SH2 domain): 2.1 ± 0.7 µM

CC(C)[C@H](NC(=O)[C@H](CC(N)=O)NC(=O)[C@@H](NC(=O)[C@@H](N)Cc1ccc(OP(=O)(O)O)cc1)C(C)C)C(=O)O [pYVNV, pTyr-Val-Asn-Val-Ala]
est. ΔG (Src SH2 domain; estimated binding free energy from FP IC50): -6.96 kcal/mol

pTyr-Glu-Glu-Ile-Pro ([pY]EEIP)
Kd (Src SH2; complex of crystal structure 1SPS, read-out: affinity of the high-affinity complex with Src SH2): 0.08 to 0.2 µM

pTyr-Val-Pro-Met-Leu ([pY]VPML) [phosphopeptide of the less specific Src SH2 crystal structure 1SHA]
Kd (Src SH2; complex of crystal structure 1SHA, read-out: Kd): 5.5 µM
